42 compounds from ChEMBL document CHEMBL4028802, “DILIrank: the largest reference drug list ranked by the risk for developing drug-induced liver injury in humans” (Drug Discov Today, 2016) can be followed below.

For series [1], the species on record is Homo sapiens. Put plainly: Liver toxicity in human assessed as induction of drug-induced liver injury by measuring severity class index.
The species entered for series [2] is Homo sapiens. Put plainly: Liver toxicity in human assessed as induction of drug-induced liver injury by measuring verified drug-induced liver injury concern status.
Throughout, for DILI severity class: key of the grades not given here.

For the compound `CCOc1nc2cccc(C(=O)O)c2n1Cc1ccc(-c2ccccc2-c2nnn[nH]2)cc1`, the DILI_severity_class in series [1] was determined as 3. Further, in series [2], the DILI_Concern entry is “Less-Dili-Concern”. In the case of `CCCc1nc2c(C)cc(-c3nc4ccccc4n3C)cc2n1Cc1ccc(-c2ccccc2C(=O)O)cc1`, in series [1], the DILI_severity_class stood at 3. Besides, the DILI_Concern result in series [2] was “Less-Dili-Concern”. For `CCCCN1C[C@H](O)[C@@H](O)[C@H](O)[C@H]1CO`, the DILI_severity_class in series [1] is 0. In addition, the DILI_Concern result in series [2] is given as “No-Dili-Concern”.

In the case of `CCCCC(=O)N(Cc1ccc(-c2ccccc2-c2nnn[nH]2)cc1)[C@H](C(=O)O)C(C)C`, in series [1], the DILI_severity_class came to 3. The DILI_Concern result in series [2] is “Less-Dili-Concern”.

For `CC[C@H](C)[C@H](NC(=O)[C@H](CC(=O)O)NC(=O)[C@H](CC(C)C)NC(=O)[C@H](CC(C)C)NC(=O)[C@H](CCCCN)NC(=O)[C@H](CCCN=C(N)N)NC(=O)[C@H](CC(N)=O)NC(=O)[C@H](CO)NC(=O)[C@H](Cc1cnc[nH]1)NC(=O)[C@H](C)NC(=O)[C@H](CCC(N)=O)NC(=O)[C@H](CCC(N)=O)NC(=O)[C@H](C)NC(=O)[C@H](CC(C)C)NC(=O)[C@H](CCC(N)=O)NC(=O)[C@H](CC(=O)O)NC(=O)[C@H](C)NC(=O)[C@H](CCCCN)NC(=O)[C@@H](NC(=O)[C@H](CCSC)NC(=O)[C@H](CCC(=O)O)NC(=O)[C@H](CC(C)C)NC(=O)[C@@H](NC(=O)[C@H](CCC(=O)O)NC(=O)[C@H](CCCN=C(N)N)NC(=O)[C@H](CC(C)C)NC(=O)[C@H](CC(C)C)NC(=O)[C@H](Cc1cnc[nH]1)NC(=O)[C@H](Cc1ccccc1)NC(=O)[C@@H](NC(=O)[C@H](CC(C)C)NC(=O)[C@H](CC(=O)O)NC(=O)[C@H](CC(C)C)NC(=O)[C@H](CO)NC(=O)[C@@H](NC(=O)[C@@H]1CCCN1C(=O)[C@@H]1CCCN1C(=O)[C@H](CCC(=O)O)NC(=O)[C@H](CCC(N)=O)NC(=O)[C@@H](N)CO)[C@@H](C)CC)[C@@H](C)O)C(C)C)[C@@H](C)O)C(=O)N[C@@H](C)C(N)=O`, the DILI_severity_class in series [1] was 0. In addition, in series [2], the DILI_Concern result is “No-Dili-Concern”. In the same order, the values of `CC(C)(C)NC(=O)[C@@H]1C[C@@H]2CCCC[C@@H]2CN1C[C@@H](O)[C@H](Cc1ccccc1)NC(=O)[C@H](CC(N)=O)NC(=O)c1ccc2ccccc2n1` are 3 and “Less-Dili-Concern”. For the compound `CCOC(=O)[C@H](CCc1ccccc1)N[C@@H](C)C(=O)N1[C@H](C(=O)O)C[C@@H]2CCC[C@@H]21`, the DILI_severity_class in series [1] amounted to 7. The DILI_Concern entry in series [2] is “Less-Dili-Concern”. Consider `Cl.NCCNCCNCCN`, for which the DILI_severity_class in series [1] was 1. The DILI_Concern result in series [2] is reported as “No-Dili-Concern”. As to `O=C(O)[C@@H](S)[C@@H](S)C(=O)O`, the DILI_severity_class in series [1] was 2. Also, the DILI_Concern result in series [2] was “Less-Dili-Concern”. For `C[C@@H](NCCCc1cccc(C(F)(F)F)c1)c1cccc2ccccc12`, in series [1], the DILI_severity_class worked out at 0. Besides, the DILI_Concern entry in series [2] is given as “No-Dili-Concern”. In the same order, the values of `CC[C@@H](C(N)=O)N1CCCC1=O` are 8 and “Less-Dili-Concern”.

As for `CC(C)CN(C[C@@H](O)[C@H](Cc1ccccc1)NC(=O)O[C@H]1CO[C@H]2OCC[C@H]21)S(=O)(=O)c1ccc(N)cc1`, in series [1], the DILI_severity_class turned out to be 8. Moreover, the DILI_Concern entry in series [2] is given as “Most-Dili-Concern”. Regarding `COc1ccc(CC2c3cc(OC)c(OC)cc3CC[N+]2(C)CCC(=O)OCCCCCOC(=O)CC[N+]2(C)CCc3cc(OC)c(OC)cc3C2Cc2ccc(OC)c(OC)c2)cc1OC` (centres undefined), the DILI_severity_class in series [1] is recorded as 0. The DILI_Concern result in series [2] is “No-Dili-Concern”. Take `CC1=C(CC(=O)O)c2cc(F)ccc2/C1=C\c1ccc([S+](C)[O-])cc1` (centres undefined): in series [1], the DILI_severity_class is 8. For the same compound, the DILI_Concern result in series [2] is “Most-Dili-Concern”. `CCOC(=O)[C@H](CCc1ccccc1)N[C@@H](C)C(=O)N1Cc2ccccc2C[C@H]1C(=O)O`: the DILI_severity_class in series [1] is 3. The DILI_Concern entry in series [2] is on record as “Less-Dili-Concern”. As to `COCCCOc1cc(C[C@@H](C[C@H](N)[C@@H](O)C[C@H](C(=O)NCC(C)(C)C(N)=O)C(C)C)C(C)C)ccc1OC`, in series [1], the DILI_severity_class came out at 0. Further, in series [2], the DILI_Concern result was “Less-Dili-Concern”. In the same order, the values of `O=C(O)c1ccccc1-c1c2ccc(=O)cc-2oc2cc(O)ccc12` are 0 and “No-Dili-Concern”. In the same order, the values of `CO/N=C(\C(=O)N[C@@H]1C(=O)N2C(C(=O)[O-])=C(C[N+]3(C)CCCC3)CS[C@H]12)c1csc(N)n1` are 3 and “Less-Dili-Concern”. Regarding `CCCc1nn(C)c2c(=O)[nH]c(-c3cc(S(=O)(=O)N4CCN(C)CC4)ccc3OCC)nc12`, the DILI_severity_class in series [1] came out at 3. Also, the DILI_Concern result in series [2] is listed as “Less-Dili-Concern”.

On to `CCC[C@@]1(CCc2ccccc2)CC(O)=C([C@H](CC)c2cccc(NS(=O)(=O)c3ccc(C(F)(F)F)cn3)c2)C(=O)O1`, for which the DILI_severity_class in series [1] is given as 8. Further, the DILI_Concern result in series [2] is “Most-Dili-Concern”. On to `O=S(=O)(OC[C@H]1O[C@@H](O[C@]2(COS(=O)(=O)[O][Al]([OH])[OH])O[C@H](OS(=O)(=O)[O][Al]([OH])[OH])[C@@H](OS(=O)(=O)[O][Al]([OH])[OH])[C@@H]2OS(=O)(=O)[O][Al]([OH])[OH])[C@H](OS(=O)(=O)[O][Al]([OH])[OH])[C@@H](OS(=O)(=O)[O][Al]([OH])[OH])[C@@H]1OS(=O)(=O)[O][Al]([OH])[OH])[O][Al]([OH])[OH].[OH][Al]([OH])[OH].[OH][Al]([OH])[OH].[OH][Al]([OH])[OH].[OH][Al]([OH])[OH].[OH][Al]([OH])[OH].[OH][Al]([OH])[OH].[OH][Al]([OH])[OH].[OH][Al]([OH])[OH]`, for which, in series [1], the DILI_severity_class came out at 0. In addition, in series [2], the DILI_Concern entry is listed as “No-Dili-Concern”. In the same order, the values of `Cc1nnc(C(=O)NC(C)(C)c2nc(C(=O)NCc3ccc(F)cc3)c(O)c(=O)n2C)o1` are 7 and “Most-Dili-Concern”. Take `CCN(CC)C(=O)C1(c2ccccc2)CC1CN` (centres undefined): in series [1], the DILI_severity_class worked out at 7. For the same compound, the DILI_Concern result in series [2] is “Most-Dili-Concern”. In the same order, the values of `O=C(O)COc1ccc(C(=O)c2cccs2)c(Cl)c1Cl` are 8 and “Most-Dili-Concern”.

For the compound `O=S([O-])([O-])=S.[Na+].[Na+]`, the DILI_severity_class in series [1] was determined as 0. The DILI_Concern result in series [2] is recorded as “No-Dili-Concern”. For `C/C=C1\NC(=O)[C@@H]2CSSCC/C=C/[C@@H](CC(=O)N[C@H](C(C)C)C(=O)N2)OC(=O)[C@H](C(C)C)NC1=O` the same measures were 0 and “No-Dili-Concern”.

Regarding `CC(C)C[C@H](NC(=O)[C@H](Cc1c[nH]c2ccccc12)NC(=O)[C@H](Cc1ccc(O)cc1)NC(=O)[C@H](CO)NC(=O)[C@H](Cc1c[nH]c2ccccc12)NC(=O)[C@H](Cc1c[nH]cn1)NC(=O)[C@@H]1CCC(=O)N1)C(=O)N[C@@H](CCCNC(=N)N)C(=O)N1CCC[C@H]1C(=O)NCC(N)=O.O=C(O)c1cc2ccccc2c(Cc2c(O)c(C(=O)O)cc3ccccc23)c1O`, in series [1], the DILI_severity_class amounted to 3. Moreover, the DILI_Concern result in series [2] was “Less-Dili-Concern”. On to `CC(=O)N[C@@H]1[C@@H](O[C@@H]2O[C@@H](C(=O)O)[C@@H](O)[C@H](O)[C@H]2O)[C@@H](OS(=O)(=O)O)[C@@H](CO)O[C@H]1O`, for which the DILI_severity_class in series [1] is 8. Further, in series [2], the DILI_Concern entry is “Most-Dili-Concern”. On to `CCC(C)CCCCC(=O)N[C@@H](CCNCS(=O)(=O)O)C(=O)N[C@H](C(=O)N[C@@H](CCNCS(=O)(=O)O)C(=O)N[C@H]1CCNC(=O)[C@H]([C@@H](C)O)NC(=O)[C@H](CCNCS(=O)(=O)O)NC(=O)[C@H](CCNCS(=O)(=O)O)NC(=O)[C@H](CC(C)C)NC(=O)[C@@H](CC(C)C)NC(=O)[C@H](CCNCS(=O)(=O)O)NC1=O)[C@@H](C)O` (some centres undefined), for which the DILI_severity_class in series [1] was found to be 0. For the same compound, in series [2], the DILI_Concern result is reported as “No-Dili-Concern”. On to `COc1ccc2[n-]c([S@+]([O-])Cc3ncc(C)c(OC)c3C)nc2c1.[Na+]`, for which the DILI_severity_class in series [1] came out at 4. The DILI_Concern result in series [2] is recorded as “Less-Dili-Concern”. As to `O=C(O)c1cc(=O)c2cc(OCC(O)COc3cccc4oc(C(=O)O)cc(=O)c34)ccc2o1` (centres undefined), in series [1], the DILI_severity_class is listed as 3. Take `NCC1O[C@H](O[C@H]2[C@@H](O)[C@H](O[C@H]3[C@H](O)[C@@H](N)C[C@@H](N)[C@@H]3O[C@H]3O[C@H](CN)[C@@H](O)[C@H](O)[C@H]3N)O[C@@H]2CO)[C@H](N)[C@@H](O)[C@@H]1O` (some centres undefined): the DILI_severity_class in series [1] amounted to 0. Moreover, the DILI_Concern entry in series [2] is “No-Dili-Concern”.

On to `CCO[C@@H]1OC(=O)C[C@@H]1NC(=O)[C@@H]1CCCN2C(=O)CC[C@H](NC(=O)c3nccc4ccccc34)C(=O)N12`, for which the DILI_severity_class in series [1] worked out at 8. Also, in series [2], the DILI_Concern result is “Most-Dili-Concern”.

As to `CCOC(=O)[C@H](CCc1ccccc1)N[C@@H](C)C(=O)N1CCC[C@H]1C(=O)O`, in series [1], the DILI_severity_class stood at 7. In series [2], the DILI_Concern entry is “Less-Dili-Concern”.

Regarding `Cc1c(O)cccc1C(=O)N[C@@H](CSc1ccccc1)[C@H](O)CN1C[C@H]2CCCC[C@H]2C[C@H]1C(=O)NC(C)(C)C`, in series [1], the DILI_severity_class is on record as 3. Further, in series [2], the DILI_Concern result is “Less-Dili-Concern”.

Regarding `Nc1nc(N)c2nc(-c3ccccc3)c(N)nc2n1`, the DILI_severity_class in series [1] was 5. The DILI_Concern entry in series [2] was “Less-Dili-Concern”. Take `COc1ccc(CCN(C)CCCC(C#N)(c2ccc(OC)c(OC)c2)C(C)C)cc1OC` (centres undefined): the DILI_Concern entry in series [2] is reported as “Less-Dili-Concern”. `N[C@@H](Cc1ccc(N(CCCl)CCCl)cc1)C(=O)O`: the DILI_severity_class in series [1] was found to be 5. For the same compound, in series [2], the DILI_Concern result is given as “Less-Dili-Concern”. In the case of `C=CC1=C(C(=O)O)N2C(=O)[C@@H](NC(=O)/C(=N\O)c3csc(N)n3)[C@H]2SC1`, the DILI_severity_class in series [1] is 7. The DILI_Concern entry in series [2] is recorded as “Less-Dili-Concern”. As for `CC(=O)Nc1ccc(O)cc1` [ACETAMINOPHEN], the DILI_Concern entry in series [2] was “Most-Dili-Concern”.

For `CN(C)CCCN1c2ccccc2CCc2ccccc21` [IMIPRAMINE], in series [2], the DILI_Concern entry is “Less-Dili-Concern”.

For `Clc1ccccc1CN1CCc2sccc2C1` [TICLOPIDINE], in series [2], the DILI_Concern result is reported as “Most-Dili-Concern”.
